The values that follow are results of earlier work, collected in article PMC6503469, “The Use of Molecular Descriptors To Model Pharmaceutical Uptake by a Fish Primary Gill Cell Culture Epithelium” (Environmental Science & Technology, 2018).

In general, pKa refers to the negative logarithm of the acid dissociation constant. As usually defined, the log D is the decadic logarithm of the distribution of all forms, ionised or not, between an organic phase and buffer at a given pH.

The conditions of data set [1]: source not stated; for PSA: polar surface area; for pKa: molecular descriptor; for log D: octanol–water distribution coefficient at pH 7.4; for log Kow: octanol–water partition coefficient; for log S: molecular descriptor (solubility).
Details of data set [2]: method as in PMID 28853873. The conditions noted are these: adult zebrafish.
Test in data set [3]: not given
The source holds these as a separate data set.

On the set-up of data set [4]: method as in Chen et al 2017. The conditions noted are these: pH 7.6, after 6h exposure to 12.5 µg/L; ref Chen et al 2017.
Details of data set [5]: method as in Nallani et al 2012. The conditions noted are these: pH 7.4, exposed to 83 µg/L for 7 days; ref Nallani et al 2012.

Counter-ions that a name gives are not always drawn. Like-named read-outs stand apart in the source and are kept apart here.

On to `CC(=O)Nc1nnc(S(N)(=O)=O)s1` [acetazolamide], for which, in data set [1], the PSA is reported as 115.04 Å^2.

Turning to `C[C@H]1C[C@H]2[C@@H]3CCC4=CC(=O)C=C[C@]4(C)[C@@]3(Cl)[C@@H](O)C[C@]2(C)[C@@]1(O)C(=O)CO` [beclomethasone], in data set [1], the pKa was 13.85, the “log D” value is reported as 4.16, the “log Kow” value was 3.49 and the PSA is recorded as 106.97 Å^2. Besides, the Plasma concentration (pH 7.4, 21 days exposure to 816 ng/L, dipropionate rapidly metabolized, combined values, ref Margiotta-Casaluci et al. 2016) was 60 ± 35 ng/mL.

In the case of `NC(=O)N1c2ccccc2C=Cc2ccccc21` [carbamazepine], the BCFss in data set [2] was 1.41 ± 7.13 L kg^–1. The Plasma concentration in data set [3] (pH 7.7, after 10 days exposed to 43 µg/L, ref Lahti et al 2011) is reported as 25 ng/mL. Moreover, in data set [1], the “log S” value is listed as “–3.2”, the “log D” value is 2.28, the “log Kow” value is reported as 2.28 and the PSA is on record as 46.33 Å^2.

For `O=C(O)Cc1ccccc1Nc1c(Cl)cccc1Cl` [diclofenac, diclofenac sodium salt], in data set [1], the “log S” value is “–4.8”, the log distribution coefficient (log D) is listed as 1.22, the “log Kow” value is given as 1.9 and the PSA was 52.16 Å^2. Also, the Plasma concentration (pH 7.6, after 48h exposure to 24 µg/L, ref Bickley et al 2017) is listed as 205 ng/mL. Also, the Plasma concentration (pH 7.6, after 21 days exposed to 0.95 µg/L, ref Bickley et al 2017) is recorded as 26 ng/mL.

`Cc1ccc(C)c(OCCCC(C)(C)C(=O)O)c1` [gemfibrozil]: in data set [1], the “log S” value is reported as “–4”, the pKa is recorded as 4.42, the “log D” value is listed as 1.40 and the “log Kow” value is listed as 4.77. Further, the PSA in data set [1] is recorded as 46.53 Å^2. The Plasma concentration in data set [4] was 183 ng/mL.

In the case of `CC(C)Cc1ccc(C(C)C(=O)O)cc1` (centres unmarked) [ibuprofen, ibuprofen sodium salt], in data set [1], the “log S” value is “–3.5”, the “log D” value is 0.29, the “log Kow” value is given as 2.48 and the PSA is given as 40.10 Å^2. Under “pH 7.4, after 24h exposed to 107 µg/L, ref Patel et al 2016”, the Plasma concentration is 550 ng/mL.

Take `CC(C(=O)O)c1cccc(C(=O)c2ccccc2)c1` (centres unmarked) [ketoprofen]: in data set [3] (pH 7.4, after 14 days exposure to 91 µg/L, ref Cuklev et al 2012), the Plasma concentration was 1 ng/mL. In addition, in data set [1], the “log D” value was 0.06, the “log Kow” value is given as 0.97 and the PSA is 54.37 Å^2.

For the molecule `C#C[C@]1(O)CC[C@H]2[C@@H]3CCC4=CC(=O)CC[C@@H]4[C@H]3CC[C@@]21C` [norethindrone, norethindrone-19], the Plasma concentration in data set [5] is 950 ng/mL. In data set [1], the pKa is listed as 17.59, the “log D” value is listed as 2.98, the “log Kow” value is 3.15 and the PSA is listed as 37.30 Å^2.

Regarding `CC(=O)CC(c1ccccc1)c1c(O)c2ccccc2oc1=O` (centres unmarked) [warfarin], in data set [1], the “log S” value is on record as “–3.8”, the pKa is 5.08 and the “log D” value is recorded as 0.16.
